# Source: patent US20200208108A1, “INTERFERON PRIMED PLASMACYTOID DENDRITIC CELLS” (AARHUS UNIVERSITET, priority 2017, published 2020)
# Experiments:
# Format in all cases: cell-based, human
# [1] = system: HSPC-pDCs; assay: Phenotypic analysis of pDC-related and maturation surface markers by flow cytometry; settings: priming from day 21, with IL-3
# Description: (§1) HSPC-pDCs were cultured in RPMI-1640 medium with 10% heat inactivated FCS, 600 μg/mL L-glutamine, 200 U/mL penicillin and 100 μg/mL streptomycin, but depleted for growth factors used for the cultivation process. As described in individual figure legends, medium was supplemented with IFN-β (PBL Assay Science), IFN-γ (PeproTech) or both cytokines simultaneously (IFN-β+γ). After 24 (day 21+1) or 72 (day 21+3) hours, cells were washed in warm medium, and phenotypically or functionally characterized.
# (§2) For functional characterization, cells were seeded in 96-well plates. During stimulation cells were kept in medium with 20 ng/mL IL-3. Twenty hours post stimulation supernatants were harvested and kept at −20° C. until cytokine quantifications. For phenotypic characterization, primed cells were seeded out in 48-well plates and stimulated for 24 hours before phenotypic analysis by flow cytometry.
# Immunophenotypical analysis was performed using flow cytometry. Briefly, 2×10^5 cells were spun down and resuspended in PBS with 0.5% BSA and 0.09% NaN3. […] Fluorescence intensities were measured on a LSR Fortessa flow cytometer (Becton Dickinson) with four lasers (405, 488, 561 and 640 nm) and 18 photomultiplier (PMT) detectors. […] Data were analyzed using FlowJo software (version 10, Tree Star, Ashland, Oreg., USA). […]
# [2] = system: HSPC-pDCs; assay: Functional type I IFN in supernatants after TLR7/TLR9 agonist stimulation (HEK-Blue IFN-α/β reporter); settings: separate priming; TLR7 and TLR9 agonists
# Description: as §1, §2
# Bioactive functional type I IFN was quantified in supernatants using the reporter cell line HEK-Blue™ IFN-α/β (Invivogen). The cell line was maintained in DMEM+GlutaMax™-I (Gibco®, Life Technologies), supplemented with 10% heat-inactivated FCS, 100 μg/mL streptomycin and 200 U/mL penicillin, 100 μg/mL normocin (InvivoGen), 30 μg/mL blasticidin (InvivoGen) and 100 μg/mL zeocin (InvivoGen). […] SEAP activity was assessed by measuring optical density (OD) at 620 nm on a microplate reader (ELx808, BioTEK). […]
# [3] = system: HSPC-pDCs; assay: IL-6 in supernatants after TLR7/TLR9 agonist stimulation (ELISA); settings: separate priming; TLR7 and TLR9 agonists
# Description: as §1, §2
# Protein levels of IL-6 in supernatants were evaluated using ELISA kits (Biolegend) following the manufacturers instructions.
substance,measurement,setting,value
IFN-γ: recombinant IFN-γ (PeproTech) used for priming,expression levels of CD303 and CD304 on HSPC-pDCs after priming,[1],improved
same,promotion of type I IFN response in comparison to IFN-β,[2],less effective
same,secretion of IL-6 by primed HSPC-pDCs,[3],predominantly promoted
